From publication PMC9427925, “The measurement of binding affinities by NMR chemical shift perturbation” (Journal of Biomolecular Nmr, 2022) come the findings set out here.

This assay deals with T1, HisJ (Escherichia coli, UniProt P0AEU0).
T1 construct: HisJ (241 residues)
Put plainly: […] HSQC/TROSY NMR chemical shift perturbation titration, global fit of all 1H and […] shifts. It is filed as binding.

T1 sequence (P0AEU0 23-260): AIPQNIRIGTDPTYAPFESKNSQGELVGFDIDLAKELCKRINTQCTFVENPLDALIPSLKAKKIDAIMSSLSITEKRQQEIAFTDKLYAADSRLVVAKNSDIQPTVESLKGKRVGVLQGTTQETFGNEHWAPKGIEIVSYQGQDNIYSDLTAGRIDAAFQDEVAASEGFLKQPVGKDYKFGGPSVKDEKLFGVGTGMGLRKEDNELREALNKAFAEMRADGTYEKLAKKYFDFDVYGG

For `NCCCC[C@H](N)C(=O)O` [lysine], the equilibrium dissociation constant (Kd) came out at 55.3 ± 0.4 µM.
